Test results taken from ChEMBL document CHEMBL5665443, “Enzyme Inhibitor Single Concentration assay results for EUbOPEN Chemogenomics Library” (2024).
Where a SMILES comes first, the peptide text is derived from it.

How the values were obtained:
Conditions in all cases: Hit No
[1] = target: Endonuclease 8-like 1 (Homo sapiens) (UniProt Q96FI4);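 note: fluorescence at 594 nm from quenched duplex DNA oligonucleotides released by NEIL1 cleavage and strand separation, reported as reduction of this enzyme activity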
Endonuclease 8-like 1 (Homo sapiens), sequence (Q96FI4 whole entry): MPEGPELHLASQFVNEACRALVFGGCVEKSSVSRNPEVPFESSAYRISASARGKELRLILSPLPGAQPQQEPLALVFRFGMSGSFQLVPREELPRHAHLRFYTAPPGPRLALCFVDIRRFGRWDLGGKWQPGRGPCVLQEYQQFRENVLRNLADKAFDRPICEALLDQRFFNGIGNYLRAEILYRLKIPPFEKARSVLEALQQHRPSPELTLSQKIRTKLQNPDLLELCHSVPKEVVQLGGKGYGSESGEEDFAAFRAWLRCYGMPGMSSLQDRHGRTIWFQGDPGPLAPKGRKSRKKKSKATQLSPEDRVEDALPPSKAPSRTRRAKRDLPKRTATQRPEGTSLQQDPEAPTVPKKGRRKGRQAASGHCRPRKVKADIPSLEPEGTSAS
Description: Inhibition of NEIL1 by quantifying inhibition of NEIL1-mediated cleavage and dissociation of quenched duplex DNA oligonucleotides, measured as fluorescence at 594 nm.

[2] = target: T1, Endonuclease 8-like 2 (Homo sapiens) (UniProt Q969S2);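 note: fluorescence at 594 nm reports NEIL2 cutting and release of a quenched double-stranded DNA oligo substrate, reduced signal read as inhibition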
T1 sequence (whole entry): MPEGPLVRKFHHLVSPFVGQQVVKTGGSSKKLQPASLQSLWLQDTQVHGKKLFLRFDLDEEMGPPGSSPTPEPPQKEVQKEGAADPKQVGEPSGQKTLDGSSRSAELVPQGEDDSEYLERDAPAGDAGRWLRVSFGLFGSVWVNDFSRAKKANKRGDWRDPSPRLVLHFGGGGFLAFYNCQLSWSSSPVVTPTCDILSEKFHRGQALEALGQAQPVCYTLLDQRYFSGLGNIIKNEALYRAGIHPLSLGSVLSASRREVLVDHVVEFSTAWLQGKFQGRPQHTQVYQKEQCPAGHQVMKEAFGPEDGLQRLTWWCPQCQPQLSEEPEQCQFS
Description: Inhibition of NEIL2 by quantifying inhibition of NEIL2-mediated cleavage and dissociation of quenched duplex DNA oligonucleotides, measured as fluorescence at 594 nm.

[3] = target: G/T mismatch-specific thymine DNA glycosylase (Homo sapiens) (UniProt Q13569);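 note: human TDG cleavage of quenched duplex DNA oligonucleotides coupled to APE1, strand release read as fluorescence at 594 nm, inhibition of TDG activity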
G/T mismatch-specific thymine DNA glycosylase (Homo sapiens), sequence (Q13569 whole entry): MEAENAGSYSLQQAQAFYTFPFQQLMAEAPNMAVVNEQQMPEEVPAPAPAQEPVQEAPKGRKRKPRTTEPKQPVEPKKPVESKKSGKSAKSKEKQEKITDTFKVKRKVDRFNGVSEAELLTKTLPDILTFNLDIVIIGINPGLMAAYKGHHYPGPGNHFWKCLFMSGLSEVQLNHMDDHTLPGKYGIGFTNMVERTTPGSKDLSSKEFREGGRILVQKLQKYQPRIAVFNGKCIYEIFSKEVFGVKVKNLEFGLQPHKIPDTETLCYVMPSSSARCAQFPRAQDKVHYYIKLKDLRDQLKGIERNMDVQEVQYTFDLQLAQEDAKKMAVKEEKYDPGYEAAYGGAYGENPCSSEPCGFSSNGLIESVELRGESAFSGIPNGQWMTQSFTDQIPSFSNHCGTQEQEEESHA
Description: Inhibition of TDG by quantifying inhibition of TDG-mediated cleavage and dissociation of quenched duplex DNA oligonucleotides, measured as fluorescence at 594 nm. To generate a functional strand incision and increase turn-over this assay is coupled to APE1.

[4] = target: Uracil-DNA glycosylase (Homo sapiens) (UniProt P13051);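 note: UNG excision on a quenched double-stranded DNA oligo probe, with APE1 added for strand incision and turnover, read as fluorescence at 594 nm as strands separate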
Uracil-DNA glycosylase (Homo sapiens), sequence (P13051 whole entry, the tested form may be a part): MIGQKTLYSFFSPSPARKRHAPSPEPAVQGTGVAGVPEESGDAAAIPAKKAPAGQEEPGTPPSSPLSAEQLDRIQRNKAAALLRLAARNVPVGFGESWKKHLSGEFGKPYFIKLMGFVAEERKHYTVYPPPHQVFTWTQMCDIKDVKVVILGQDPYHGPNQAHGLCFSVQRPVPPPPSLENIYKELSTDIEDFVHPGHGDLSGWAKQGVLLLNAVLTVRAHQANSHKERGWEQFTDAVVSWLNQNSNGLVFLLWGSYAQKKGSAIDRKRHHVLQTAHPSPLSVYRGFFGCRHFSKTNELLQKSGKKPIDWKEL
Description: Inhibition of UNG by quantifying inhibition of UNG-mediated cleavage and dissociation of quenched duplex DNA oligonucleotides, measured as fluorescence at 594 nm. To generate a functional strand incision and increase turn-over this assay is coupled to APE1.

[5] = target: Methyl-CpG-binding domain protein 4 (Homo sapiens) (UniProt O95243);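 note: MBD4 activity read as fluorescence at 594 nm from cleavage and release of a quenched duplex DNA oligonucleotide, with APE1 coupled to incise the strand and raise turnover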
Methyl-CpG-binding domain protein 4 (Homo sapiens), sequence (O95243 whole entry, the tested form may be a part): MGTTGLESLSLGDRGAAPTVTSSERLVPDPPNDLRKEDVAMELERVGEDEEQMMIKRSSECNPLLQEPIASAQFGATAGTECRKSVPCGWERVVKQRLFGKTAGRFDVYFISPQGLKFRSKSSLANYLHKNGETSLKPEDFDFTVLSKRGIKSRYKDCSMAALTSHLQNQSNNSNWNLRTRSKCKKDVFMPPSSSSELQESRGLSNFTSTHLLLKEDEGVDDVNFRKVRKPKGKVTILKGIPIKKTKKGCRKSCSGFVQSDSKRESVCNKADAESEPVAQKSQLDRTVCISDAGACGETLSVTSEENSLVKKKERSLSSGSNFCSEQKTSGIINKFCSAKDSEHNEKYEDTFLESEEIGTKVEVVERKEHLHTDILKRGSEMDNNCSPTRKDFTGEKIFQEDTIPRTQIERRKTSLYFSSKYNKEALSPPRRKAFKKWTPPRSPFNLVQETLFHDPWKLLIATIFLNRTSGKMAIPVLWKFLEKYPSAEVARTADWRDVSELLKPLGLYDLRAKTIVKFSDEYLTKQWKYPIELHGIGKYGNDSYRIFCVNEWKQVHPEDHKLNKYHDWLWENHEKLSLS
Description: Inhibition of MBD4 by quantifying inhibition of MBD4-mediated cleavage and dissociation of quenched duplex DNA oligonucleotides, measured as fluorescence at 594 nm. To generate a functional strand incision and increase turn-over this assay is coupled to APE1.

[6] = target: T2, Adenine DNA glycosylase (Homo sapiens) (UniProt Q9UIF7);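 note: human MUTYH activity read as 594 nm fluorescence from cleavage and release of a quenched DNA duplex, coupled with APE1 for strand incision, lower signal meaning inhibition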
T2 sequence (whole entry): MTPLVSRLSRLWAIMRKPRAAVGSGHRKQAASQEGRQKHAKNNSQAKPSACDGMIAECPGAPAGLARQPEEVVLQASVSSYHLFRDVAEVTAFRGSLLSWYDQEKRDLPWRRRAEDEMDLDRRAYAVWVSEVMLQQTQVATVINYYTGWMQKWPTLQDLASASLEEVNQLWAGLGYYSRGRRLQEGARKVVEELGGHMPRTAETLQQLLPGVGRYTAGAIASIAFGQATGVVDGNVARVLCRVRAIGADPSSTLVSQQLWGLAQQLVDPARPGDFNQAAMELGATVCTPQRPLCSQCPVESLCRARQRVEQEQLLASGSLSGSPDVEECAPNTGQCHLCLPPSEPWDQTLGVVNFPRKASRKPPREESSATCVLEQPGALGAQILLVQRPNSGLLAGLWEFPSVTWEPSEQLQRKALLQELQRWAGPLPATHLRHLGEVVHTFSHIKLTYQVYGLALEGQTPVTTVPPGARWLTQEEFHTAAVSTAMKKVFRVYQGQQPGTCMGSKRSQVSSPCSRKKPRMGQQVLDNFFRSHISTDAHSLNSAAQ
Description: Inhibition of MUTYH by quantifying inhibition of MUTYH-mediated cleavage and dissociation of quenched duplex DNA oligonucleotides, measured as fluorescence at 594 nm. To generate a functional strand incision and increase turn-over this assay is coupled to APE1.

[7] = target: T3, Single-strand selective monofunctional uracil DNA glycosylase (Homo sapiens) (UniProt Q53HV7);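 note: enzymatic SMUG1 assay coupled with APE1, reading fluorescence at 594 nm released when a quenched double-stranded DNA oligonucleotide substrate is cleaved and separated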
T3 sequence (whole entry): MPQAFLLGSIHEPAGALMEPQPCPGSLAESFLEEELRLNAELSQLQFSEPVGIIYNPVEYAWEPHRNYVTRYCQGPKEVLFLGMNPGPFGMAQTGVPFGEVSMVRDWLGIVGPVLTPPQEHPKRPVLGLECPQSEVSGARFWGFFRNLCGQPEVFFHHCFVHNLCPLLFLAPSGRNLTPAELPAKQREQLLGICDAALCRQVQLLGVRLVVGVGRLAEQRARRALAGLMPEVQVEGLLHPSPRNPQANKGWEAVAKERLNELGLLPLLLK
Description: Inhibition of SMUG1 by quantifying inhibition of SMUG1-mediated cleavage and dissociation of quenched duplex DNA oligonucleotides, measured as fluorescence at 594 nm. To generate a functional strand incision and increase turn-over this assay is coupled to APE1.

[8] = target: N-glycosylase/DNA lyase (Homo sapiens) (UniProt O15527);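 note: OGG1 cleavage of a quenched duplex DNA oligonucleotide, coupled to APE1 for strand incision, read as fluorescence at 594 nm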
N-glycosylase/DNA lyase (Homo sapiens), sequence (O15527 whole entry): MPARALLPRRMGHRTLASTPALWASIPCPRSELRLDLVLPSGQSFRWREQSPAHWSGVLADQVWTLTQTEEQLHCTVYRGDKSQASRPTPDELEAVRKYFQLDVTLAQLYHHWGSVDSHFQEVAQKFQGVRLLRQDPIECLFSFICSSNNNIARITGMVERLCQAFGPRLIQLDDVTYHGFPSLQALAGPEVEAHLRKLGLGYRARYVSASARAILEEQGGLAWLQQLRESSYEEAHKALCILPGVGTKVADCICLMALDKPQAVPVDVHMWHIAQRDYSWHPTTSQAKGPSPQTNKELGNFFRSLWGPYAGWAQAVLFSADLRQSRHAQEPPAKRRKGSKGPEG
Description: Inhibition of OGG1 by quantifying inhibition of OGG1-mediated cleavage and dissociation of quenched duplex DNA oligonucleotides, measured as fluorescence at 594 nm. To generate a functional strand incision and increase turn-over this assay is coupled to APE1.

[9] = target: T4, Endonuclease III-like protein 1 (Homo sapiens) (UniProt P78549);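 note: enzyme assay tracking NTHL1 cutting and release of a quenched double-stranded DNA oligo substrate, read as fluorescence at 594 nm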
T4 sequence (whole entry): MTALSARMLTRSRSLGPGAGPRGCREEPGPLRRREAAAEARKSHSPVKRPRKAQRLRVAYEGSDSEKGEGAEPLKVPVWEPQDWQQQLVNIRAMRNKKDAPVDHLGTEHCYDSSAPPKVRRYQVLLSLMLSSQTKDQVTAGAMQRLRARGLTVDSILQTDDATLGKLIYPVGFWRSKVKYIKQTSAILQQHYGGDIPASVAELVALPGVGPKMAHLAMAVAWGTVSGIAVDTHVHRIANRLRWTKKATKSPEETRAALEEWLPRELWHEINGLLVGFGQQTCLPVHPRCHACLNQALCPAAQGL
Description: Inhibition of NTHL1 by quantifying inhibition of NTHL1-mediated cleavage and dissociation of quenched duplex DNA oligonucleotides, measured as fluorescence at 594 nm.

Structure (SMILES) | inhibition ([1]; Compound Concentration 1.0 uM) [%] | inhibition ([2]; Compound Concentration 1.0 uM) [%] | inhibition ([3]; Compound Concentration 1.0 uM) [%] | inhibition ([4]; Compound Concentration 1.0 uM) [%] | inhibition ([5]; Compound Concentration 1.0 uM) [%] | inhibition ([6]; Compound Concentration 1.0 uM) [%] | inhibition ([7]; Compound Concentration 1.0 uM) [%] | inhibition ([3]; Compound Concentration 10.0 uM) [%] | inhibition ([4]; Compound Concentration 10.0 uM) [%] | inhibition ([5]; Compound Concentration 10.0 uM) [%] | inhibition ([6]; Compound Concentration 10.0 uM) [%] | inhibition ([7]; Compound Concentration 10.0 uM) [%] | inhibition ([1]; Compound Concentration 10.0 uM) [%] | inhibition ([2]; Compound Concentration 10.0 uM) [%] | inhibition ([8]; Compound Concentration 10.0 uM) [%] | inhibition ([8]; Compound Concentration 1.0 uM) [%] | inhibition ([9]; Compound Concentration 10.0 uM) [%] | inhibition ([9]; Compound Concentration 1.0 uM) [%]
CN(c1ccnc(CNc2nc(Nc3ccc4c(c3)CC(=O)N4)ncc2C(F)(F)F)n1)S(C)(=O)=O | 1.52 | -6.14 | 72 | 0.644 | 26.2 | 1.9 | 15.5 | – | – | – | – | – | – | – | – | – | – | –
Cc1cc(NC(=O)Nc2ccc(N(C)C)cc2)c2cc(F)cc(F)c2n1 | – | – | – | – | – | – | – | 9.41 | -7.93 | 6.31 | 6.04 | -2.31 | – | – | – | – | – | –
CC(C)Oc1ccccc1C(=O)Nc1ccccc1C(=O)Nc1cccc(S(=O)(=O)C(F)(F)F)c1 | – | – | – | – | – | – | – | 4.21 | -8.11 | – | 8.72 | – | -8.8 | -0.483 | – | – | – | –
Cc1cc(C(=O)N2Cc3cnn(C)c3Nc3ccccc32)ccc1CNC(=O)N1CCC[C@H]1C(=S)N1CCCN(C)CC1 | – | – | – | – | – | – | – | -7.26 | – | – | -9.83 | -2.21 | -1.83 | 2.51 | -7 | – | – | –
CC(C)c1cc(Nc2nc(N3CCC[C@H](N)C3)ncc2C(N)=O)cc(C(C)C)n1 | -3.69 | 11.5 | 25.2 | 1.59 | -6.11 | 0.673 | 11.3 | – | – | – | – | – | – | – | – | – | – | –
Oc1cc2c(cc1O)C(c1ccccc1)CNCC2 (centres undefined) | – | – | – | – | – | – | – | 16.1 | – | – | 6.16 | -4.15 | -0.945 | 7.5 | -0.929 | – | – | –
Cc1c(CC(=O)O)c2cccnc2n1Cc1ccc(S(C)(=O)=O)cc1C(F)(F)F | – | – | – | – | – | – | – | -3.98 | – | – | 7.57 | -4.39 | 0.834 | 7.75 | -4.75 | – | – | –
Cc1nc[nH]c1CCN | – | – | – | – | – | – | – | 8.2 | – | – | -5.1 | -7.49 | -5.39 | -3.73 | -7.09 | – | – | –
Clc1cccc(COc2cncc(N3CCNCC3)n2)c1 | – | – | – | – | – | – | – | -5.02 | -8.45 | -8.79 | 5.27 | 1.71 | 5.13 | 1.26 | – | – | – | –
CC(C)C[C@@H]1NC(=O)[C@@H](C(C)C)NC(=O)[C@@H]2CCCN2C(=O)[C@@H](CC(=O)O)NC(=O)[C@@H](Cc2c[nH]c3ccccc23)NC1=O (HELM PEPTIDE1{L.[dW].[dD].P.[dV]}$PEPTIDE1,PEPTIDE1,1:R1-5:R2$$$V2.0) | – | – | – | – | – | – | – | 0.54 | – | -8.68 | 6.29 | -0.372 | -3.47 | 0.764 | – | – | – | –
C[C@@](Cc1c[nH]c2ccccc12)(NC(=O)Nc1ccc([N+](=O)[O-])cc1)C(=O)NCC1(c2ccccn2)CCCCC1 | – | – | – | – | – | – | – | 0.518 | – | – | 3.6 | 0.936 | 7.51 | 5.26 | -2.05 | – | – | –
CCOC(=O)c1c(/C(C#N)=C\N)c2ccc(Cl)c(Cl)c2n1C | -2.9 | -5.96 | 41.6 | 0.379 | – | -2.85 | 12.4 | – | – | – | – | – | – | – | – | -3.98 | – | –
COc1ccc(S(=O)(=O)c2cc(OC)ccc2S(=O)(=O)c2ccc([C@H](C)NS(C)(=O)=O)cc2)cc1 | – | – | – | – | – | – | – | -5.72 | – | – | 12.1 | 4.18 | 2.76 | 4.76 | -5.59 | – | – | –
CN1CCN(c2ccc(OC(F)(F)F)c(Nc3ncc4c(n3)-c3c(c(C(N)=O)nn3CCO)CC4)c2)CC1 | 1.33 | -8.92 | 38.7 | 3.38 | – | 27.3 | 13.3 | – | – | – | – | – | – | – | – | -4.24 | – | –
COc1ccc(C(=O)N2CCN(C(=O)/C=C/c3ccc(Br)cc3)CC2)cc1 | – | – | – | – | – | – | – | -0.119 | – | – | 16.7 | -0.421 | 2.61 | -6.97 | -3.17 | – | – | –
CN1CC(=O)N=C1NC(=O)Nc1cccc(Cl)c1 | – | – | – | – | – | – | – | -6.27 | – | – | 3.99 | -1.34 | -2.58 | 3.76 | -2.01 | – | – | –
C[C@@H](N)Cc1c[nH]cn1 | – | – | – | – | – | – | – | 19 | -6.39 | – | -1.26 | -2.12 | 3.8 | -9.22 | -8 | – | – | –
COc1cccc([C@@H](C)NCCCc2ccccc2Cl)c1 | – | – | – | – | – | – | – | 6.54 | – | – | -7.79 | 3.94 | -0.352 | – | -9.29 | – | – | –
COc1ccc2c(O[C@@H]3C[C@H]4C(=O)N[C@]5(C(=O)O)CC5/C=C\CCCCC[C@H](NC(=O)OC5CCCC5)C(=O)N4C3)cc(-c3csc(NC(=O)C(C)C)n3)nc2c1C (some centres undefined) | – | – | – | – | – | – | – | 38.5 | 5.79 | 33.3 | – | -6.44 | -5.14 | 1.3 | 55.8 | – | 6.6 | –
CCOC(=O)N1CCC(NS(=O)(=O)c2ccc(NC(=O)c3ccccc3C)c3ccccc23)CC1 | – | – | – | – | – | – | – | 4.53 | -2.92 | -4.31 | – | -0.636 | 16.8 | 3.73 | 6.16 | – | -6.86 | –
C[C@@H](c1cccc(CN)c1)n1cc(Cl)cc(C(N)=O)c1=N | – | – | – | – | – | – | – | 49.3 | -0.0293 | 72.4 | – | 3.56 | -9.23 | 0.0213 | -2.92 | – | -5.89 | –
C[C@H](NC(=O)Nc1cc2[nH]ncc2c(CO)n1)c1ccccn1 | – | – | – | – | – | – | – | 51.6 | 4.22 | 22.3 | – | 21.2 | -8.95 | -4.78 | 0.354 | – | -0.801 | –
CCCc1c(OCCCOc2ccc(OCC(=O)O)cc2)ccc(C(C)=O)c1O | – | – | – | – | – | – | – | 63 | 2.04 | 63.2 | – | 4.9 | -2.56 | 10.5 | 64.5 | – | 3.31 | –
C=C1/C(=C\C=C2/CCC[C@]3(C)[C@@H]([C@H](C)/C=C/C=C/C(O)(CC)CC)CC[C@@H]23)C[C@@H](O)C[C@@H]1O | – | – | – | – | – | – | – | 28.5 | 0.169 | 53.8 | – | -1.6 | 0.77 | 15.3 | -1.05 | – | -4.57 | –
O=S(=O)(NC1CCC(c2cc(F)ccc2F)(S(=O)(=O)c2ccc(Cl)cc2)CC1)C(F)(F)F (centres undefined) | -7.56 | -8.91 | 36.8 | 0.604 | 61.8 | – | 19.5 | – | – | – | – | – | – | – | – | 19.6 | – | -3.92
NC[C@H](O)c1ccc(O)c(O)c1 | – | – | – | – | – | – | – | – | – | – | -7.66 | – | 2.61 | -0.983 | -2.34 | – | – | –
COc1cc(N[C@@H]2CCCC[C@]2(O)C(F)(F)F)ccc1F | 1.98 | 4.36 | 50.9 | 0.673 | 65.4 | – | 14.3 | – | – | – | – | – | – | – | – | 1.9 | – | -3.26
